According to US20240100170A1, “CYCLIC-AMP RESPONSE ELEMENT BINDING PROTEIN (CBP) AND/OR ADENOVIRAL E1A BINDING PROTEIN OF 300 KDA (P300) DEGRADATION COMPOUNDS AND METHODS OF USE” (CULLGEN (SHANGHAI), INC., priority 2020, published 2024):

The compounds below were run on LNCaP prostate cancer cell (assay: LNCaP cell viability (CellTiter-Glo)). Conditions: Homo sapiens, 72 h; LNCaP cell viability, 3 days, CellTiter-Glo; Table 3.
Type: cell-based
Protocol: LNCaP cells seeded in 96-well plates were treated with 10 μM GNE-781 or selected bivalent compounds, i.e. P-001, P-002, and P-019, following a 12-point 3-fold serial dilution. Three days after treatment, cell viability was determined using the CellTiter-Glo kit (Promega) following manufacturer's instructions. Cell viability was normalized to the mean values of 3 replicates of untreated cells. Dose-dependent response was analyzed following the least-squares non-linear regression method using the GraphPad Prism 5.0 software.
LNCaP (clone FGC), 22RV1 and other cells were cultured at 37° C. with 5% CO 2 in RPMI 1640 Medium supplemented with 10% fetal bovine serum. Cells were authenticated using the short tandem repeat (STR) assays. Mycoplasma test results were negative.
Cells were seeded at a density of 5000 cells per well in 96-well assay plates and treated with test compounds following a 12-point 3-fold serial dilution. Three days later, cell viability was determined using the CellTiter-Glo assay kit according to the manufactureR's instructions. The dose-response curves were determined and IC50 values were calculated using the GraphPad Prism software following a nonlinear regression (least squares fit) method.

SMILES	IC50
CNC(=O)N1CCc2c(c(N3CCCc4cc(-c5cnn(C)c5)c(C(F)F)cc43)nn2C2CCN(C(=O)CCOCCC(=O)N[C@H](C(=O)N3C[C@H](O)C[C@H]3C(=O)NCc3ccc(-c4scnc4C)cc3)C(C)(C)C)CC2)C1 [P-065, 3-(7-(difluoromethyl)-6-(1-methyl-1H-pyrazol-4-yl)-3,4-dihydroquinolin-1(2H)-yl)-1-(1-(3-(3-(((S)-1-((2S,4R)-4-hydroxy-2-((4-(4-methylthiazol-5-yl)benzyl)carbamoyl)pyrrolidin-1-yl)-3,3-dimethyl-1-oxobutan-2-yl)amino)-3-oxopropoxy)propanoyl)piperidin-4-yl)-N-methyl-1,4,6,7-tetrahydro-5H-pyrazolo[4,3-c]pyridine-5-carboxamide]	74.5 nM

Same assay, conditions: Homo sapiens, 72 h; LNCaP cell viability, 3 days, CellTiter-Glo; Table 4

SMILES	IC50
CC(=O)N1CCc2c(c(N3CCCc4cc(-c5cnn(C)c5)c(C(F)F)cc43)nn2C2CCN(C(=O)CN3CCN(CC#Cc4cccc5c4n(C)c(=O)n5C4CCC(=O)NC4=O)CC3)CC2)C1 (centres unmarked) [P-226, 3-(4-(3-(4-(2-(4-(5-Acetyl-3-(7-(difluoromethyl)-6-(1-methyl-1H-pyrazol-4-yl)-3,4-dihydroquinolin-1(2H)-yl)-4,5,6,7-tetrahydro-1H-pyrazolo[4,3-c]pyridin-1-yl)piperidin-1-yl)-2-oxoethyl)piperazin-1-yl)prop-1-yn-1-yl)-3-methyl-2-oxo-2,3-dihydro-1H-benzo[d]imidazol-1-yl)piperidine-2,6-dione]	398 nM
CC(=O)N1CCc2c(c(N3CCCc4cc(-c5cnn(C)c5)c(C(F)F)cc43)nn2C2CCN(CCCCN3CCC(Cn4c(=O)n(C5CCC(=O)NC5=O)c5ccccc54)CC3)CC2)C1 (centres unmarked) [P-236, 3-(3-((1-(4-(4-(5-acetyl-3-(7-(difluoromethyl)-6-(1-methyl-1H-pyrazol-4-yl)-3,4-dihydroquinolin-1(2H)-yl)-4,5,6,7-tetrahydro-1H-pyrazolo[4,3-c]pyridin-1-yl)piperidin-1-yl)butyl)piperidin-4-yl)methyl)-2-oxo-2,3-dihydro-1H-benzo[d]imidazol-1-yl) piperidine-2,6-dione]	560 nM
CC(=O)N1CCc2c(c(N3CCCc4cc(-c5cnn(C)c5)c(C(F)F)cc43)nn2C2CCN(CCCCN3CCN(c4cccc5c4C(=O)N(C4CCC(=O)NC4=O)C5=O)CC3)CC2)C1 (centres unmarked) [P-248, 4-(4-(4-(4-(5-Acetyl-3-(7-(difluoromethyl)-6-(1-methyl-1H-pyrazol-4-yl)-3,4-dihydroquinolin-1(2H)-yl)-4,5,6,7-tetrahydro-1H-pyrazolo[4,3-c]pyridin-1-yl)piperidin-1-yl)butyl)piperazin-1-yl)-2-(2,6-dioxopiperidin-3-yl)isoindoline-1,3-dione]	241 nM
CC(=O)N1CCc2c(c(N3CCCc4cc(-c5cnn(C)c5)c(C(F)F)cc43)nn2C2CCN(CCN3CCC(COc4cccc5c4n(C)c(=O)n5C4CCC(=O)NC4=O)CC3)CC2)C1 (centres unmarked) [P-255, 3-(4-((1-(2-(4-(5-Acetyl-3-(7-(difluoromethyl)-6-(1-methyl-1H-pyrazol-4-yl)-3,4-dihydroquinolin-1(2H)-yl)-4,5,6,7-tetrahydro-1H-pyrazolo[4,3-c]pyridin-1-yl)piperidin-1-yl)ethyl)piperidin-4-yl)methoxy)-3-methyl-2-oxo-2,3-dihydro-1H-benzo[d]imidazol-1-yl)piperidine-2,6-dione]	> 500 nM
CC(=O)N1CCc2c(c(N3CCCc4cc(-c5cnn(C)c5)c(C(F)F)cc43)nn2C2CCN(C(=O)CN3CCN(CC(=O)Nc4cccc(NC5CCC(=O)NC5=O)c4)CC3)CC2)C1 (centres unmarked) [P-257, 2-(4-(2-(4-(5-acetyl-3-(7-(difluoromethyl)-6-(1-methyl-1H-pyrazol-4-yl)-3,4-dihydroquinolin-1(2H)-yl)-4,5,6,7-tetrahydro-1H-pyrazolo[4,3-c]pyridin-1-yl)piperidin-1-yl)-2-oxoethyl)piperazin-1-yl)-N-(3-((2,6-dioxopiperidin-3-yl)amino)phenyl)acetamide]	> 500 nM
CC(=O)N1CCc2c(c(N3CCCc4cc(-c5cnn(C)c5)c(C(F)F)cc43)nn2C2CCN(C(=O)CCN3CCN(CC(=O)Nc4cccc(NC5CCC(=O)NC5=O)c4)CC3)CC2)C1 (centres unmarked) [P-258, 2-(4-(3-(4-(5-acetyl-3-(7-(difluoromethyl)-6-(1-methyl-1H-pyrazol-4-yl)-3,4-dihydroquinolin-1(2H)-yl)-4,5,6,7-tetrahydro-1H-pyrazolo[4,3-c]pyridin-1-yl)piperidin-1-yl)-3-oxopropyl)piperazin-1-yl)-N-(3-((2,6-dioxopiperidin-3-yl)amino)phenyl)acetamide]	> 500 nM
CC(=O)N1CCc2c(c(N3CCCc4cc(-c5cnn(C)c5)c(C(F)F)cc43)nn2C2CCN(C(=O)CCCN3CCN(CC(=O)Nc4cccc(NC5CCC(=O)NC5=O)c4)CC3)CC2)C1 (centres unmarked) [P-259, 2-(4-(4-(4-(5-acetyl-3-(7-(difluoromethyl)-6-(1-methyl-1H-pyrazol-4-yl)-3,4-dihydroquinolin-1(2H)-yl)-4,5,6,7-tetrahydro-1H-pyrazolo[4,3-c]pyridin-1-yl)piperidin-1-yl)-4-oxobutyl)piperazin-1-yl)-N-(3-((2,6-dioxopiperidin-3-yl)amino)phenyl)acetamide]	> 500 nM
CC(=O)N1CCc2c(c(N3CCCc4cc(-c5cnn(C)c5)c(C(F)F)cc43)nn2C2CCN(C(=O)CC3CCN(CC(=O)Nc4cccc(NC5CCC(=O)NC5=O)c4)CC3)CC2)C1 (centres unmarked) [P-260, 2-(4-(2-(4-(5-acetyl-3-(7-(difluoromethyl)-6-(1-methyl-1H-pyrazol-4-yl)-3,4-dihydroquinolin-1(2H)-yl)-4,5,6,7-tetrahydro-1H-pyrazolo[4,3-c]pyridin-1-yl)piperidin-1-yl)-2-oxoethyl)piperidin-1-yl)-N-(3-((2,6-dioxopiperidin-3-yl)amino)phenyl)acetamide]	> 500 nM
CC(=O)N1CCc2c(c(N3CCCc4cc(-c5cnn(C)c5)c(C(F)F)cc43)nn2C2CCN(C(=O)CCC3CCN(CC(=O)Nc4cccc(NC5CCC(=O)NC5=O)c4)CC3)CC2)C1 (centres unmarked) [P-261, 2-(4-(3-(4-(5-acetyl-3-(7-(difluoromethyl)-6-(1-methyl-1H-pyrazol-4-yl)-3,4-dihydroquinolin-1(2H)-yl)-4,5,6,7-tetrahydro-1H-pyrazolo[4,3-c]pyridin-1-yl)piperidin-1-yl)-3-oxopropyl)piperidin-1-yl)-N-(3-((2,6-dioxopiperidin-3-yl)amino)phenyl)acetamide]	> 500 nM
CC(=O)N1CCc2c(c(N3CCCc4cc(-c5cnn(C)c5)c(C(F)F)cc43)nn2C2CCN(C(=O)CCCC3CCN(CC(=O)Nc4cccc(NC5CCC(=O)NC5=O)c4)CC3)CC2)C1 (centres unmarked) [P-262, 2-(4-(4-(4-(5-Acetyl-3-(7-(difluoromethyl)-6-(1-methyl-1H-pyrazol-4-yl)-3,4-dihydroquinolin-1(2H)-yl)-4,5,6,7-tetrahydro-1H-pyrazolo[4,3-c]pyridin-1-yl)piperidin-1-yl)-4-oxobutyl)piperidin-1-yl)-N-(3-((2,6-dioxopiperidin-3-yl)amino)phenyl)acetamide]	> 500 nM
CC(=O)N1CCc2c(c(N3CCCc4cc(-c5cnn(C)c5)c(C(F)F)cc43)nn2C2CCN(C(=O)CCCCCCCC(=O)Nc3cccc(NC4CCC(=O)NC4=O)c3)CC2)C1 (centres unmarked) [P-263, 9-(4-(5-Acetyl-3-(7-(difluoromethyl)-6-(1-methyl-1H-pyrazol-4-yl)-3,4-dihydroquinolin-1(2H)-yl)-4,5,6,7-tetrahydro-1H-pyrazolo[4,3-c]pyridin-1-yl)piperidin-1-yl)-N-(3-((2,6-dioxopiperidin-3-yl)amino)phenyl)-9-oxononanamide]	> 500 nM

These compounds were tested against P300 (Homo sapiens, UniProt Q09472) (assay: percentage of inhibition (degradation) of p300 at 10 nM, Tables 2-4). Conditions: p300, 10 nM; Table 2; read-out: Degradation (10 nM).
Type: cell-based
Set-up: LNCaP or 22RV1 cells that express CBP/P300 proteins were treated with GNE-781 or the bivalent compounds; endogenous in cells; host or cells: LNCaP or 22RV1 (not given)
Protocol: Cultured cells or tissue chunks were washed with cold PBS once and lysed in cold RIPA buffer supplemented with protease inhibitors and phosphatase inhibitors (Beyotime Biotechnology). The solutions were then incubated at 4° C. for 30 minutes with gentle agitation to fully lyse cells. Cell lysates were centrifuged at 13,000 rpm for 10 minutes at 4° C. and pellets were discarded. Total protein concentrations in the lysates were determined by BCA assays (Beyotime Biotechnology). Cell lysates were mixed with Laemmli loading buffer to 1 X and heated at 99° C. for 5 min. Proteins were resolved on SDS-PAGE and visualized by chemiluminescence. Images were taken by a ChemiDoc MP Imaging system (Bio-Rad). Protein bands were quantitated using the accompanied software provided by Bio-Rad.

Chain of P300 (Q09472 whole entry): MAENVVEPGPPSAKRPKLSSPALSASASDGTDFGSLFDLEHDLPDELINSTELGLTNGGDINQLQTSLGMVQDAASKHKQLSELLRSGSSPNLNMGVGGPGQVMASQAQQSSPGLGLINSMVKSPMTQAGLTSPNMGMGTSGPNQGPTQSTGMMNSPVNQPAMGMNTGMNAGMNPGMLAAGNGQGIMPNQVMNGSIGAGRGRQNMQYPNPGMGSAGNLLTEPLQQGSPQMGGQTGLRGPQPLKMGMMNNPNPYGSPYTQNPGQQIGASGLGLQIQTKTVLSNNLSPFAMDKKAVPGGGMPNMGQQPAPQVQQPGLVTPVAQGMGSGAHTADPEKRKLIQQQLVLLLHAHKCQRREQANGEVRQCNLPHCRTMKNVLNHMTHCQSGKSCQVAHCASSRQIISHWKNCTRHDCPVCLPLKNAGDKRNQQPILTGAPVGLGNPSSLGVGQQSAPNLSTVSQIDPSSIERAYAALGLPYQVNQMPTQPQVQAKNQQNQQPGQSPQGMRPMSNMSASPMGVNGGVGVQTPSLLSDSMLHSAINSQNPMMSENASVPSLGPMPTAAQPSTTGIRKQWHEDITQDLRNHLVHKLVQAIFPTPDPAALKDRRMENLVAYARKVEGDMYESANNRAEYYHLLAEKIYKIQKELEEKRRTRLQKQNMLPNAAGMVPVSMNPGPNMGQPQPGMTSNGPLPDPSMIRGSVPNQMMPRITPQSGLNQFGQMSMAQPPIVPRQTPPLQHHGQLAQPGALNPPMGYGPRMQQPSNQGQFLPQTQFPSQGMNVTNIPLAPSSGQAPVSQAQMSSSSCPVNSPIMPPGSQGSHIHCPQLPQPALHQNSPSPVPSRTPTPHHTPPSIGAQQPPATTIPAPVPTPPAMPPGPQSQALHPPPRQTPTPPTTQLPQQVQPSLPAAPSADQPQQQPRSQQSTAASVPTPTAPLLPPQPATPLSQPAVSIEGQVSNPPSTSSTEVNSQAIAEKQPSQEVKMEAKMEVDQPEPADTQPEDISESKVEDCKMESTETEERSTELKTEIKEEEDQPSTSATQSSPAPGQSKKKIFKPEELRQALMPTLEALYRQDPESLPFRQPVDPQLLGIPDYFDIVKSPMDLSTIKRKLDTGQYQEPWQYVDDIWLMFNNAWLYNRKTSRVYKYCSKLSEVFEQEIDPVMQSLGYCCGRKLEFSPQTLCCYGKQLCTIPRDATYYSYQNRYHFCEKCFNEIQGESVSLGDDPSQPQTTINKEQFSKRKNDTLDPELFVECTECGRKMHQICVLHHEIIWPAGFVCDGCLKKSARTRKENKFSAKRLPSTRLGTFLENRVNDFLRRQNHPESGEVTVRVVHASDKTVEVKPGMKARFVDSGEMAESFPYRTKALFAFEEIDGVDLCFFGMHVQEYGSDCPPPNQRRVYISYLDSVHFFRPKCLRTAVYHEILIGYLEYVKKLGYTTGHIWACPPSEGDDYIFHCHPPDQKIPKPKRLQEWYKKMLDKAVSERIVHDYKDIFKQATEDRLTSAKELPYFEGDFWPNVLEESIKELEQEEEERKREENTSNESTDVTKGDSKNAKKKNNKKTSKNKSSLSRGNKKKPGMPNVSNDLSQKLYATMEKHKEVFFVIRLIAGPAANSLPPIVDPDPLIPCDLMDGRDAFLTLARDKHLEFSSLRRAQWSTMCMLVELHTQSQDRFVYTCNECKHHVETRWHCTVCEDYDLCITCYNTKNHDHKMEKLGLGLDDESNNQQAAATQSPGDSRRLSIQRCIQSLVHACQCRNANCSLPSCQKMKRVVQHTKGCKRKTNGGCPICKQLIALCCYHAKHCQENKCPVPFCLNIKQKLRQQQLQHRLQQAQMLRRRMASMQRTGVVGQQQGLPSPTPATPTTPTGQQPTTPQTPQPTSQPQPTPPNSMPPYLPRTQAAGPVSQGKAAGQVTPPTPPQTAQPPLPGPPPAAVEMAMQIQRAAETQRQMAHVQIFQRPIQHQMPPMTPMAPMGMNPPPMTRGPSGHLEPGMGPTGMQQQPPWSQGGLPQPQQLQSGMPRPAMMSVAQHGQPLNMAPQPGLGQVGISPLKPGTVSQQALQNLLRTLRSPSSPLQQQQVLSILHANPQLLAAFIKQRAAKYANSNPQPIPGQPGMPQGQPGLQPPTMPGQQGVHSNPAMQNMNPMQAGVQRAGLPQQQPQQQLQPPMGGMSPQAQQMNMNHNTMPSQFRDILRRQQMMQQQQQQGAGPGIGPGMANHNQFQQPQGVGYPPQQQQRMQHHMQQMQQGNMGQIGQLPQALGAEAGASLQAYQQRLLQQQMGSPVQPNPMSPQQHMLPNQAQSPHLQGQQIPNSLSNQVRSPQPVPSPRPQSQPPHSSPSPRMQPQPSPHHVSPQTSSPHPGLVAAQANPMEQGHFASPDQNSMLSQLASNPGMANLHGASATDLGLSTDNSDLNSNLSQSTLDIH

SMILES	inhibition at 0.01 µM
CNC(=O)N1CCc2c(c(N3CCCc4cc(-c5cnn(C)c5)c(C(F)F)cc43)nn2C2CCN(C(=O)CNc3cccc4c3C(=O)N(C3CCC(=O)NC3=O)C4=O)CC2)C1 (centres unmarked) [P-013, 3-(7-(difluoromethyl)-6-(1-methyl-1H-pyrazol-4-yl)-3,4-dihydroquinolin-1(2H)-yl)-1-(1-((2-(2,6-dioxopiperidin-3-yl)-1,3-dioxoisoindolin-4-yl)glycyl)piperidin-4-yl)-N-methyl-1,4,6,7-tetrahydro-5H-pyrazolo[4,3-c]pyridine-5-carboxamide]	20 to 50%

Same assay, conditions: p300, 10 nM; Table 3; read-out: Degradation (10 nM)

SMILES	inhibition at 0.01 µM
CNC(=O)N1CCc2c(c(N3CCCc4cc(-c5cnn(C)c5)c(C(F)F)cc43)nn2C2CCN(C(=O)CCOCCC(=O)N[C@H](C(=O)N3C[C@H](O)C[C@H]3C(=O)NCc3ccc(-c4scnc4C)cc3)C(C)(C)C)CC2)C1 [P-065, 3-(7-(difluoromethyl)-6-(1-methyl-1H-pyrazol-4-yl)-3,4-dihydroquinolin-1(2H)-yl)-1-(1-(3-(3-(((S)-1-((2S,4R)-4-hydroxy-2-((4-(4-methylthiazol-5-yl)benzyl)carbamoyl)pyrrolidin-1-yl)-3,3-dimethyl-1-oxobutan-2-yl)amino)-3-oxopropoxy)propanoyl)piperidin-4-yl)-N-methyl-1,4,6,7-tetrahydro-5H-pyrazolo[4,3-c]pyridine-5-carboxamide]	< 20%
